Among the data in ChEMBL document CHEMBL3862033 (J Med Chem, 2016) are Imax, inhibition and Ki values, retold here.

SMILES strings stand for the structures.

5-hydroxytryptamine receptor 5A (Homo sapiens), sequence (P47898 whole entry): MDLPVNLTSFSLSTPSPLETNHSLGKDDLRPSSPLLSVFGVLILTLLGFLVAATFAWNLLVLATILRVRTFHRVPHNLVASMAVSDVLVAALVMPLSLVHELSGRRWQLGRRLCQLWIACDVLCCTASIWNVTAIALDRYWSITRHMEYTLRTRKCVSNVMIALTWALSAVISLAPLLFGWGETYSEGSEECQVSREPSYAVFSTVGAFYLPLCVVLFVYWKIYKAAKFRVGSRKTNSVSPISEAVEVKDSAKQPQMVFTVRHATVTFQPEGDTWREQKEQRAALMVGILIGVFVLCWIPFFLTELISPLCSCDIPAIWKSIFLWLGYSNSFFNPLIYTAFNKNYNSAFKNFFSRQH
5-hydroxytryptamine receptor 6 (Homo sapiens), sequence (P50406 whole entry): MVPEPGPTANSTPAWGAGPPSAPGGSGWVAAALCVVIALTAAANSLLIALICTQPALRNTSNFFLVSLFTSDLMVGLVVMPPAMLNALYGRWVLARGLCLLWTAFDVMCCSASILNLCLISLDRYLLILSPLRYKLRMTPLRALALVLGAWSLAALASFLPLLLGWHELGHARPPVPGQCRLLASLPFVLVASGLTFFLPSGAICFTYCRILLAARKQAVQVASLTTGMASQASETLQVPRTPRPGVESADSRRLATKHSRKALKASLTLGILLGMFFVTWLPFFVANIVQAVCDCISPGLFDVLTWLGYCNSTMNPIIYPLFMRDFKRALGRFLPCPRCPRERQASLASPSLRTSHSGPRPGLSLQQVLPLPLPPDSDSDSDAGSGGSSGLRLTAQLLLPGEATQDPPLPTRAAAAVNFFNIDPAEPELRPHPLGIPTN
5-hydroxytryptamine receptor 4 (Homo sapiens), sequence (Q13639 whole entry): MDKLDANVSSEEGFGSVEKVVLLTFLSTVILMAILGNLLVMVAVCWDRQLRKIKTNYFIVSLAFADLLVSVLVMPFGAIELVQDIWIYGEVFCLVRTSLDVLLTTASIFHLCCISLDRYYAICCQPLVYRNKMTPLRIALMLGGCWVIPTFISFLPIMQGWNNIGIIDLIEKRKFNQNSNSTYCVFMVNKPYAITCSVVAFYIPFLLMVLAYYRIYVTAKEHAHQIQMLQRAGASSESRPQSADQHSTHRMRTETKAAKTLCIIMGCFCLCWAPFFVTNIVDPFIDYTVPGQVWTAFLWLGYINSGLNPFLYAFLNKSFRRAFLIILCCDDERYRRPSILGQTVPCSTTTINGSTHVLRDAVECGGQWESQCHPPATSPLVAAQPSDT

The target of one assay is T1, Adenosine receptor A3 (Mus musculus) (UniProt Q61618).
T1 sequence (whole entry): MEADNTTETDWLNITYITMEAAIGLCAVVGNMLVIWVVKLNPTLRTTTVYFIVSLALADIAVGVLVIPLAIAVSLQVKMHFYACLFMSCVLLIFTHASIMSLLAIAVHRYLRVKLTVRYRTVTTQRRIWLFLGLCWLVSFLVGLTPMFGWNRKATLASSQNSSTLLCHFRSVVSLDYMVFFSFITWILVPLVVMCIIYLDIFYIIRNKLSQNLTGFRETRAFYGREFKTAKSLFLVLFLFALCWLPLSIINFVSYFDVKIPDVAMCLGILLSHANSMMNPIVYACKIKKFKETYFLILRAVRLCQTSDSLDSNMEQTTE
Nature of the assay: Agonist activity at recombinant mouse A3AR expressed in HEK293 cells assessed as inhibition of forskolin-stimulated cAMP accumulation at 10 uM after 15 mins relative to adenosine-5'-N-ethyluronamide. The assay is classed as functional, cell-based.
Conditions: not given
Take `CCNC(=O)[C@H]1O[C@@H](n2cnc3c(N)ncnc32)[C@H](O)[C@@H]1O` [NECA]: the Imax amounted to 100%.

A further assay concerns the target T2, 5-hydroxytryptamine receptor 1A (Homo sapiens) (UniProt P08908).
T2 sequence (whole entry): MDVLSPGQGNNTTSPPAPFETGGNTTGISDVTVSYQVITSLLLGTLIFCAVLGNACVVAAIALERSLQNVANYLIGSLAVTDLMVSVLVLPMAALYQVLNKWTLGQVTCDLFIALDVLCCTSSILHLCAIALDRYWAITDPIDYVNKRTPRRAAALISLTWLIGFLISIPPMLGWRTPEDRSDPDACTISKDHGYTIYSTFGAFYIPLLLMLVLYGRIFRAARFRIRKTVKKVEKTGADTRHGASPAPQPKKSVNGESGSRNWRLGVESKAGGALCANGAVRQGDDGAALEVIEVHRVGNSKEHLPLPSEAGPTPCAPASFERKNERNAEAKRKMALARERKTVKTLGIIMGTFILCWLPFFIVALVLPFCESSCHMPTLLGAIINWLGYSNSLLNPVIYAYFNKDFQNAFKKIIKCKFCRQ
Nature of the assay: Displacement of [3H]WAY100635 from human 5-HT1AR expressed in CHO cell membranes at 10 uM incubated for 90 mins under dark condition by microbeta scintillation counting method relative to control.
Conditions: not given
`CCNC(=O)[C@H]1O[C@@H](n2cnc3c(N)ncnc32)[C@H](O)[C@@H]1O` [NECA] came in with an inhibition below 50%.

The next assay addresses 5-hydroxytryptamine receptor 4 (Homo sapiens) (UniProt Q13639). Nature of the assay: Displacement of [3H]GR113808 from human 5-HT4 receptor at 10 uM incubated for 90 mins under dark condition by microbeta scintillation counting method relative to control.
Conditions: not given
For `CCNC(=O)[C@H]1O[C@@H](n2cnc3c(N)ncnc32)[C@H](O)[C@@H]1O` [NECA], the inhibition is below 50%.

The target in the next assay is 5-hydroxytryptamine receptor 1E (Homo sapiens) (UniProt P28566). Nature of the assay: Displacement of [3H]5-HT from human 5-HT1E receptor expressed in HEK cell membranes at 10 uM incubated for 90 mins under dark condition by microbeta scintillation counting method relative to control. The note with it: HEK293.
5-hydroxytryptamine receptor 1E (Homo sapiens), sequence (P28566 whole entry): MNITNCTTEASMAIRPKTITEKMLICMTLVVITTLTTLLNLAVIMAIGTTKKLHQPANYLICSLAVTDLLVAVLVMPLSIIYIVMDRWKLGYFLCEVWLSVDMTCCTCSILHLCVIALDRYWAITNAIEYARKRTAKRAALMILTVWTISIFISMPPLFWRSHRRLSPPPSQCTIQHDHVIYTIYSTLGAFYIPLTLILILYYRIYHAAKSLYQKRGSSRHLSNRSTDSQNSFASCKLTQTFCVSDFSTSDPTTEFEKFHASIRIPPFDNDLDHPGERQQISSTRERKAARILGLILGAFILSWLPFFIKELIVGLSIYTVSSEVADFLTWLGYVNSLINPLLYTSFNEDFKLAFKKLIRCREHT
With `CCNC(=O)[C@H]1O[C@@H](n2cnc3c(N)ncnc32)[C@H](O)[C@@H]1O` [NECA], the inhibition was below 50%.

For a further assay, the target named is 5-hydroxytryptamine receptor 2A (Homo sapiens, UniProt P28223). Nature of the assay: Displacement of [3H]ketanserin from human 5-HT2A receptor expressed in HEK-T cell membranes incubated for 90 mins under dark condition by microbeta scintillation counting method.
5-hydroxytryptamine receptor 2A, sequence (P28223 whole entry): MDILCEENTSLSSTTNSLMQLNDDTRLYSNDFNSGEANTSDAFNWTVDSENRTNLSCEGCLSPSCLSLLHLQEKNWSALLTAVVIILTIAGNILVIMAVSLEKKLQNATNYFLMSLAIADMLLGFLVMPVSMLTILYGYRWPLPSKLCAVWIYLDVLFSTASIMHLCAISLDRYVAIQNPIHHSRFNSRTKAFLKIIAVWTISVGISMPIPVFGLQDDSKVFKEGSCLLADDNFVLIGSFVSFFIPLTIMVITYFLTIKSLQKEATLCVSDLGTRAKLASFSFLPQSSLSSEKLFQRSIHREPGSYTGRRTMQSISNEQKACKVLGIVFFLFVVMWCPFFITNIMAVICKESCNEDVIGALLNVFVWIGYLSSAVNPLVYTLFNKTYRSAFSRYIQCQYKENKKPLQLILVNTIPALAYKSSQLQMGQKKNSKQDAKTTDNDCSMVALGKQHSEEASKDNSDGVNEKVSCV
Conditions: not given
`CCNC(=O)[C@H]1O[C@@H](n2cnc3c(N)ncnc32)[C@H](O)[C@@H]1O` [NECA] yielded a Ki above 10 µM.

The next assay addresses 5-hydroxytryptamine receptor 6 (Homo sapiens) (UniProt P50406). Nature of the assay: Displacement of [3H]LSD from human 5-HT6 receptor expressed in HEK cell membranes at 10 uM incubated for 90 mins under dark condition by microbeta scintillation counting method relative to control. As to conditions: HEK293.
`CCNC(=O)[C@H]1O[C@@H](n2cnc3c(N)ncnc32)[C@H](O)[C@@H]1O` [NECA] yielded an inhibition below 50%.

Another assay has as its target T3, 5-hydroxytryptamine receptor 3A (Homo sapiens) (UniProt P46098).
T3 sequence (whole entry): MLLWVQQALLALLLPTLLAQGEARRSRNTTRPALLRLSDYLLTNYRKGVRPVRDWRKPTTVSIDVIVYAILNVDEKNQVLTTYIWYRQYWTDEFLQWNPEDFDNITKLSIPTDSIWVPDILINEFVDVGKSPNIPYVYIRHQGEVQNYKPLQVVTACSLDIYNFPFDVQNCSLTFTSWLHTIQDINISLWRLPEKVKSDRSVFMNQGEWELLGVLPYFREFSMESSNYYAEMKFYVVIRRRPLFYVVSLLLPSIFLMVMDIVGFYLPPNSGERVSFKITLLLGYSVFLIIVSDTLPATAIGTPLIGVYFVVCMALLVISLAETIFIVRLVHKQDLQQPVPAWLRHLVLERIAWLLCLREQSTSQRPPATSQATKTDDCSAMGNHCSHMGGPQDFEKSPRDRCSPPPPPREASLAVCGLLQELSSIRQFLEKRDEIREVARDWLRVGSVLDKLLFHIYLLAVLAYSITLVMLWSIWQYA
The assay can be described thus: Displacement of [3H]GR65630 from human 5-HT3 receptor expressed in HEK-T cell membranes at 10 uM incubated for 90 mins under dark condition by microbeta scintillation counting method relative to control.
Conditions: not given
Take `CCNC(=O)[C@H]1O[C@@H](n2cnc3c(N)ncnc32)[C@H](O)[C@@H]1O` [NECA]: the inhibition was below 50%.

In the next assay the target is 5-hydroxytryptamine receptor 1B (Homo sapiens) (UniProt P28222). Nature of the assay: Displacement of [3H]5-CT from human 5-HT1BR expressed in HEK cell membranes at 10 uM incubated for 90 mins under dark condition by microbeta scintillation counting method relative to control. The note with it: HEK293.
5-hydroxytryptamine receptor 1B (Homo sapiens), sequence (P28222 whole entry): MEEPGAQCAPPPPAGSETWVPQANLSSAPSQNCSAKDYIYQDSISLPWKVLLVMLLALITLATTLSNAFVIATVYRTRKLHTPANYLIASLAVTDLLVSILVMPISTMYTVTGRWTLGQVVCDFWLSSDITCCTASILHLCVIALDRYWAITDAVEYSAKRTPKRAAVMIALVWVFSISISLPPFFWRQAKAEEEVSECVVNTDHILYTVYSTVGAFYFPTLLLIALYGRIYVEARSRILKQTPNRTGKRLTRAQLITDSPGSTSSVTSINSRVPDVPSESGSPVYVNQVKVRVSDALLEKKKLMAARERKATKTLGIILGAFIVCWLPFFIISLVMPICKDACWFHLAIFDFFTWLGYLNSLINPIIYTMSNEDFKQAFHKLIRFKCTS
Compound `CCNC(=O)[C@H]1O[C@@H](n2cnc3c(N)ncnc32)[C@H](O)[C@@H]1O` [NECA] showed an inhibition below 50%.

A further assay has as its target 5-hydroxytryptamine receptor 5A (Homo sapiens) (UniProt P47898). Nature of the assay: Displacement of [3H]LSD from human 5-HT5A receptor expressed in Flp-In-CHO cell membranes incubated for 90 mins under dark condition by microbeta scintillation counting method relative to control. The arrangement: concentration or dose not given beside the values.
Conditions: not given
`CCNC(=O)[C@H]1O[C@@H](n2cnc3c(N)ncnc32)[C@H](O)[C@@H]1O` [NECA] displayed an inhibition below 50%.

The target of a further assay is 5-hydroxytryptamine receptor 1D (Homo sapiens) (UniProt P28221). Nature of the assay: Displacement of [3H]5-CT from human 5-HT1D receptor expressed in HEK-T cell membranes at 10 uM incubated for 90 mins under dark condition by microbeta scintillation counting method relative to control.
5-hydroxytryptamine receptor 1D (Homo sapiens), sequence (P28221 whole entry): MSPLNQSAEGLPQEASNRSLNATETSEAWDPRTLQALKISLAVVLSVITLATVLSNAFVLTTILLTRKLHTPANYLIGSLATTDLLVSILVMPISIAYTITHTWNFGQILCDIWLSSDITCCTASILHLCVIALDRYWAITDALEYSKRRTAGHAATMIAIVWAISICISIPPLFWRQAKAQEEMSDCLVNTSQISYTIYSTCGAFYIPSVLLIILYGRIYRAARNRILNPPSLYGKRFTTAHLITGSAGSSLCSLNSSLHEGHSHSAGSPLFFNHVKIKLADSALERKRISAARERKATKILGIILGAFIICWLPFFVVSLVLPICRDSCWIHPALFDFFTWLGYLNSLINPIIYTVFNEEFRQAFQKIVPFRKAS
Conditions: not given
The compound `CCNC(=O)[C@H]1O[C@@H](n2cnc3c(N)ncnc32)[C@H](O)[C@@H]1O` [NECA] returned an inhibition below 50%.

The target of the next assay is 5-hydroxytryptamine receptor 7 (Homo sapiens) (UniProt P34969). The assay can be described thus: Displacement of [3H]LSD from human 5-HT7A receptor expressed in HEK cell membranes at 10 uM incubated for 90 mins under dark condition by microbeta scintillation counting method relative to control. The note with it: HEK293.
5-hydroxytryptamine receptor 7 (Homo sapiens), sequence (P34969 whole entry): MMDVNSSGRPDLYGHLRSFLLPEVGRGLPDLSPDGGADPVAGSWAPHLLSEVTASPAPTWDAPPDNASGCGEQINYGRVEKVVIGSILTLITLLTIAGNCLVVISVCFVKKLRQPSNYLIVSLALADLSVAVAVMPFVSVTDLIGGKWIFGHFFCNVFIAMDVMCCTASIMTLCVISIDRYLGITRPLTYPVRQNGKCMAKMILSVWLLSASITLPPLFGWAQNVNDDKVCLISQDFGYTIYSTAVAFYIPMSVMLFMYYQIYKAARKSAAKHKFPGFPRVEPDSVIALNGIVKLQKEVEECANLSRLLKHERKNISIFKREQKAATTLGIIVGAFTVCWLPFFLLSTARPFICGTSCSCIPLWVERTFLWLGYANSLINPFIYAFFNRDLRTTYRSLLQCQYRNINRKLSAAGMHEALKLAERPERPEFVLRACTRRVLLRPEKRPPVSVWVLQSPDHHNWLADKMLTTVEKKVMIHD
`CCNC(=O)[C@H]1O[C@@H](n2cnc3c(N)ncnc32)[C@H](O)[C@@H]1O` [NECA] came in with an inhibition below 50%.
